The target in experiment [1] is Ephrin type-A receptor 2 (Homo sapiens) (UniProt P29317). The experiment is described as follows: Inhibition of EPHA2 (unknown origin) at 10 uM after 120 mins P33 radiolabeled kinase activity assay.
Experiment [2] concerns the target Receptor-type tyrosine-protein kinase FLT3 (Homo sapiens) (UniProt P36888). The experiment is described as follows: Inhibition of FLT3 (unknown origin) at 10 uM after 120 mins P33 radiolabeled kinase activity assay.
The target in experiment [3] is Serine/threonine-protein kinase PAK 5 (Homo sapiens) (UniProt Q9P286). The experiment in a line: Inhibition of PAK5 (unknown origin) at 10 uM after 120 mins P33 radiolabeled kinase activity assay.
Experiment [4] addresses T1, Serine/threonine-protein kinase PLK4 (Homo sapiens) (UniProt O00444).
T1 sequence (whole entry): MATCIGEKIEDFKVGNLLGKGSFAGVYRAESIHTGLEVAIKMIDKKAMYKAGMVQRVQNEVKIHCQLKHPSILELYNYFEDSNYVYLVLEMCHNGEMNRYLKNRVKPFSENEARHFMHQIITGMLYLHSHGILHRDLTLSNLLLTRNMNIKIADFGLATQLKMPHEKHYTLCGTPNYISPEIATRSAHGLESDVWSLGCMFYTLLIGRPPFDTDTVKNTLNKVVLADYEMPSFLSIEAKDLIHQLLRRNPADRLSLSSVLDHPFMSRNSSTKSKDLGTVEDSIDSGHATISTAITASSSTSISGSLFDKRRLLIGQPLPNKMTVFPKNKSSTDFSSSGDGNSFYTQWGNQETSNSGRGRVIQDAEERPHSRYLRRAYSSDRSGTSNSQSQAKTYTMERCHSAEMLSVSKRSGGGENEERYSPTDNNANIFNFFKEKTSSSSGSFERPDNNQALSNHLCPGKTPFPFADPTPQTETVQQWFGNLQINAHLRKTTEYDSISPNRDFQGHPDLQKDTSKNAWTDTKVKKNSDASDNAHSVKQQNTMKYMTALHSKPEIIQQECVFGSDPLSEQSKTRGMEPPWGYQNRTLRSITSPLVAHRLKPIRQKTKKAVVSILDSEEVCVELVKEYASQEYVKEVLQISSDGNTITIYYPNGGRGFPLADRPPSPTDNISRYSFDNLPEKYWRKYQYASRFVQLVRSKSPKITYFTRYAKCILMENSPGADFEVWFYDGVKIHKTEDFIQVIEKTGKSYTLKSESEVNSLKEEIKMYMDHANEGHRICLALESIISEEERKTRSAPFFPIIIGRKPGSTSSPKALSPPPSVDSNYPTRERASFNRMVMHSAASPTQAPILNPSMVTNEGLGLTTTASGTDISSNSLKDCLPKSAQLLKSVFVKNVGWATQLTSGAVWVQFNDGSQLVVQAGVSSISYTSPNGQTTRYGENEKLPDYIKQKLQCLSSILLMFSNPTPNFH
The experiment is described as follows: Inhibition of PLK4 (unknown origin) at 10 uM after 120 mins P33 radiolabeled kinase activity assay.

For experiment [5], the target named is Insulin receptor-related protein (Homo sapiens) (UniProt P14616). The experiment in a line: Inhibition of IRR (unknown origin) at 10 uM after 120 mins P33 radiolabeled kinase activity assay.
Chain of Insulin receptor-related protein (Homo sapiens) (P14616 27-742 limits assumed): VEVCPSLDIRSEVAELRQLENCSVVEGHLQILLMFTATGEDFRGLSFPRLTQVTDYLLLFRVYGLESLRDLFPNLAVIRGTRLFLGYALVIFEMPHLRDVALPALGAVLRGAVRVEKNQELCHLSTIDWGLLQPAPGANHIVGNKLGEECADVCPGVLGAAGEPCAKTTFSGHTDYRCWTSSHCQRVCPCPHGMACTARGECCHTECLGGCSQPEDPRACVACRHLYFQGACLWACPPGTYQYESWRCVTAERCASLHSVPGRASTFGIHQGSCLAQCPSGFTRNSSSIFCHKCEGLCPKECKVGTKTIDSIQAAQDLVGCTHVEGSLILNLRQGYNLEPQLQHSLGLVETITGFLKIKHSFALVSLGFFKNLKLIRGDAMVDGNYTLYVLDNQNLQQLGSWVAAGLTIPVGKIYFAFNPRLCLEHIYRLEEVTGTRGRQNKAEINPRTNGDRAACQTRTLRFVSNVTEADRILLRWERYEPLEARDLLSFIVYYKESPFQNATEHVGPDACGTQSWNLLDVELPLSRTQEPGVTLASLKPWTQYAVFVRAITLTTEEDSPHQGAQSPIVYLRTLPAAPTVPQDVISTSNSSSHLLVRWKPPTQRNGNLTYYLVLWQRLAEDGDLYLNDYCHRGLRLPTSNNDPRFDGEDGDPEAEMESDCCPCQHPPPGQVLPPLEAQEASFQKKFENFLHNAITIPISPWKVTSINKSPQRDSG
Chain of Insulin receptor-related protein (Homo sapiens) (P14616 747-1297 limits assumed): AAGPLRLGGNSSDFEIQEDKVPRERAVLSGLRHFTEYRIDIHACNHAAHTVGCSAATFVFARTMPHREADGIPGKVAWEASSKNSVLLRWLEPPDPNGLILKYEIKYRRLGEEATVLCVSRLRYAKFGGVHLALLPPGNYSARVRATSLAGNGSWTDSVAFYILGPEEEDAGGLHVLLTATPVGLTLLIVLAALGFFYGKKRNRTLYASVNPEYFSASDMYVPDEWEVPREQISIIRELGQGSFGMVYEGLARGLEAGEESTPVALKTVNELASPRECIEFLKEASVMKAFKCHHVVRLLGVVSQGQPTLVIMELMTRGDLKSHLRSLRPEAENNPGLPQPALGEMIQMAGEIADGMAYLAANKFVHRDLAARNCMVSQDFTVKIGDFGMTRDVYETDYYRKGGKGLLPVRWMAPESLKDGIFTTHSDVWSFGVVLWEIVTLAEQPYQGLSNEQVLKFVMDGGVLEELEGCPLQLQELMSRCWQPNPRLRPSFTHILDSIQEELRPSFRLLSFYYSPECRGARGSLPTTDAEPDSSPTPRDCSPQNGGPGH
The target of experiment [6] is Serine/threonine-protein kinase MARK2 (Homo sapiens) (UniProt Q7KZI7). The experiment is described as follows: Inhibition of MARK2 (unknown origin) at 10 uM after 120 mins P33 radiolabeled kinase activity assay.
In experiment [7] the target is T2, MAP/microtubule affinity-regulating kinase 4 (Homo sapiens) (UniProt Q96L34).
T2 sequence (whole entry): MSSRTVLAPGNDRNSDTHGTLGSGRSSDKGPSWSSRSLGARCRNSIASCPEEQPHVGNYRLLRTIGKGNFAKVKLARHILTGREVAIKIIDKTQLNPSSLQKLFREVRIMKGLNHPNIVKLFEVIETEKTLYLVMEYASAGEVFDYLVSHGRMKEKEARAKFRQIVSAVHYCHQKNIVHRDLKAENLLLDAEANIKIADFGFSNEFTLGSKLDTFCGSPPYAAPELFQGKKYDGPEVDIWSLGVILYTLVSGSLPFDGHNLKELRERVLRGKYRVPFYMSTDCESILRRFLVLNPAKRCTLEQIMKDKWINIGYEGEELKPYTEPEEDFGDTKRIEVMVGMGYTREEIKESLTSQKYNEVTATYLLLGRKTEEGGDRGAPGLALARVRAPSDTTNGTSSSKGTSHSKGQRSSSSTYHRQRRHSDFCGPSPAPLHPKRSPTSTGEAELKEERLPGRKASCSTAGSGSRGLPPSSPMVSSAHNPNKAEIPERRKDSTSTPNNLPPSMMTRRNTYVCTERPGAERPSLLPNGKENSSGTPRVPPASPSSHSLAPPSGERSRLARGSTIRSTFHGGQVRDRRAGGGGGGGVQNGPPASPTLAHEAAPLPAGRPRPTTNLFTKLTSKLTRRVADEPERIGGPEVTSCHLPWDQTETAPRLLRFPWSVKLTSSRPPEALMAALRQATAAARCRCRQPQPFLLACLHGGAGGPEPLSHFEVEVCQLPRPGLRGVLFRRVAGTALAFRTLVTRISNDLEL
The experiment in a line: Inhibition of MARK4 (unknown origin) at 10 uM after 120 mins P33 radiolabeled kinase activity assay.

Experiment [8] has as its target T3, Dual specificity mitogen-activated protein kinase kinase 3 (Homo sapiens) (UniProt P46734).
T3 sequence (whole entry): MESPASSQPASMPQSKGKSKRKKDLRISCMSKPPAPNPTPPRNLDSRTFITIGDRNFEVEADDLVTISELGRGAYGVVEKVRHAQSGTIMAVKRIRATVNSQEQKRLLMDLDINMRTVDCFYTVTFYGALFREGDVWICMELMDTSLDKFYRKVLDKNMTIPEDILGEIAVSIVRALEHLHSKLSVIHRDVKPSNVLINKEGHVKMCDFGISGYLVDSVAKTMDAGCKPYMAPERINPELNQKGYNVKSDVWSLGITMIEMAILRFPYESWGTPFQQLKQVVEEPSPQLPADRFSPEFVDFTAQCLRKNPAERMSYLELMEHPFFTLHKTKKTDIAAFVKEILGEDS
The experiment is described as follows: Inhibition of MEK3 (unknown origin) at 10 uM after 120 mins P33 radiolabeled kinase activity assay.

For experiment [9], the target named is Serine/threonine-protein kinase MRCK alpha (Homo sapiens) (UniProt Q5VT25). The experiment is described as follows: Inhibition of MRCKalpha (unknown origin) at 10 uM after 120 mins P33 radiolabeled kinase activity assay.
Chain of Serine/threonine-protein kinase MRCK alpha (Homo sapiens) (Q5VT25 whole entry): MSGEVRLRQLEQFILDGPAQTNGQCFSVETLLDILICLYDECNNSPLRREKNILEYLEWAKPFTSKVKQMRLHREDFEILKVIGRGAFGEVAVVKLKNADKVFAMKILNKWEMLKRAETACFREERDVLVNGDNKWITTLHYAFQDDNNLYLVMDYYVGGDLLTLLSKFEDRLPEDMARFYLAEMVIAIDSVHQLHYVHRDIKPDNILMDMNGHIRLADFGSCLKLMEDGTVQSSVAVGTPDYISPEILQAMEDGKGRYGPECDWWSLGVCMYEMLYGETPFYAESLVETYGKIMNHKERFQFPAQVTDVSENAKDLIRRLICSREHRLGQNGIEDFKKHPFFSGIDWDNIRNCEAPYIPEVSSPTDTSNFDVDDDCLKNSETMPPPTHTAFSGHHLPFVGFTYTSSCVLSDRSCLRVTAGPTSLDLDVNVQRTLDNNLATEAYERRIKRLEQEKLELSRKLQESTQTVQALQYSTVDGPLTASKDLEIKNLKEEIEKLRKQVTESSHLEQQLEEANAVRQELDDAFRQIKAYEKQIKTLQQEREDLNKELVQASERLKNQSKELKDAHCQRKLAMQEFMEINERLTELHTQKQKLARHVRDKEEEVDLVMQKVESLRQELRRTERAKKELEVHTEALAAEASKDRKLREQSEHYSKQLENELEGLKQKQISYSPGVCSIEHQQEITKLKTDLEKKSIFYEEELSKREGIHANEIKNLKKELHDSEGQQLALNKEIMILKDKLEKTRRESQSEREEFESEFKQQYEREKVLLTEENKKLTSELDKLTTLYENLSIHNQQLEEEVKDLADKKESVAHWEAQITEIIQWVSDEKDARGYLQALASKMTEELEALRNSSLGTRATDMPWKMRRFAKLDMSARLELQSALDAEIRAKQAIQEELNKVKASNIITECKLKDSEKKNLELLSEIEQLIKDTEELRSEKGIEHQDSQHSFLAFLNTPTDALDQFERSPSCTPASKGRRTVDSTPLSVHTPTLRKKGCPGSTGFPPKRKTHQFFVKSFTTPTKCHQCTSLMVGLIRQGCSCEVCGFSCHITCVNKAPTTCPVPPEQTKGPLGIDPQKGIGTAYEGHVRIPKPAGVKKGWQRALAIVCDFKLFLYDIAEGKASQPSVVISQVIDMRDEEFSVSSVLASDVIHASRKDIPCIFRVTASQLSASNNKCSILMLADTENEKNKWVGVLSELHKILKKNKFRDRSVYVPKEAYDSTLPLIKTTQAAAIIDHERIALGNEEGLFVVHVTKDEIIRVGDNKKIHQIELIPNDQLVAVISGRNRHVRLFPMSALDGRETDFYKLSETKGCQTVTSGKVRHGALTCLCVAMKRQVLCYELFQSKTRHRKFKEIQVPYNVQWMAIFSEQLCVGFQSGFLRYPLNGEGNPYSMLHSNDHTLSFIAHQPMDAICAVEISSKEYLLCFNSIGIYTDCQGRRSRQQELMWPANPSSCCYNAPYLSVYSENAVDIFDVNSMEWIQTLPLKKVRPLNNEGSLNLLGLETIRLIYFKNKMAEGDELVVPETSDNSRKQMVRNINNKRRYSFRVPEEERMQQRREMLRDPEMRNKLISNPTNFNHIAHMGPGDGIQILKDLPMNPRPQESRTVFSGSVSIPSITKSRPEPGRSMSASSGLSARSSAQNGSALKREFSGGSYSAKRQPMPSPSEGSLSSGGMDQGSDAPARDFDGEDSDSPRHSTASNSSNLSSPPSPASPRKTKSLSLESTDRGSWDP
Experiment [10] addresses Ribosomal protein S6 kinase alpha-3 (Homo sapiens) (UniProt P51812). The experiment is described as follows: Inhibition of RSK2 (unknown origin) at 10 uM after 120 mins P33 radiolabeled kinase activity assay.
Experiment [11] addresses CDK6/cyclin D1 (Homo sapiens) (UniProt P24385+Q00534). The experiment in a line: Inhibition of CDK6/cyclin D1 (unknown origin) at 10 uM after 120 mins P33 radiolabeled kinase activity assay. The experiment is classed as protein-complex assay.
Experiment [12] addresses CDK9/Cyclin K (Homo sapiens) (UniProt P50750+O75909). The experiment is described as follows: Inhibition of CDK9/cyclin K (unknown origin) at 10 uM after 120 mins P33 radiolabeled kinase activity assay. The experiment is classed as protein-complex assay.

Drawing on ChEMBL document CHEMBL3627608, “Crystal structures of human RIP2 kinase catalytic domain complexed with ATP-competitive inhibitors: Foundations for understanding inhibitor selectivity” (Bioorg Med Chem, 2015), this text covers inhibition for 3 compounds.

A word on the inhibition: it is the change of the read-out against control, counted positive when it falls.

Chain of Receptor-type tyrosine-protein kinase FLT3 (Homo sapiens) (P36888 whole entry): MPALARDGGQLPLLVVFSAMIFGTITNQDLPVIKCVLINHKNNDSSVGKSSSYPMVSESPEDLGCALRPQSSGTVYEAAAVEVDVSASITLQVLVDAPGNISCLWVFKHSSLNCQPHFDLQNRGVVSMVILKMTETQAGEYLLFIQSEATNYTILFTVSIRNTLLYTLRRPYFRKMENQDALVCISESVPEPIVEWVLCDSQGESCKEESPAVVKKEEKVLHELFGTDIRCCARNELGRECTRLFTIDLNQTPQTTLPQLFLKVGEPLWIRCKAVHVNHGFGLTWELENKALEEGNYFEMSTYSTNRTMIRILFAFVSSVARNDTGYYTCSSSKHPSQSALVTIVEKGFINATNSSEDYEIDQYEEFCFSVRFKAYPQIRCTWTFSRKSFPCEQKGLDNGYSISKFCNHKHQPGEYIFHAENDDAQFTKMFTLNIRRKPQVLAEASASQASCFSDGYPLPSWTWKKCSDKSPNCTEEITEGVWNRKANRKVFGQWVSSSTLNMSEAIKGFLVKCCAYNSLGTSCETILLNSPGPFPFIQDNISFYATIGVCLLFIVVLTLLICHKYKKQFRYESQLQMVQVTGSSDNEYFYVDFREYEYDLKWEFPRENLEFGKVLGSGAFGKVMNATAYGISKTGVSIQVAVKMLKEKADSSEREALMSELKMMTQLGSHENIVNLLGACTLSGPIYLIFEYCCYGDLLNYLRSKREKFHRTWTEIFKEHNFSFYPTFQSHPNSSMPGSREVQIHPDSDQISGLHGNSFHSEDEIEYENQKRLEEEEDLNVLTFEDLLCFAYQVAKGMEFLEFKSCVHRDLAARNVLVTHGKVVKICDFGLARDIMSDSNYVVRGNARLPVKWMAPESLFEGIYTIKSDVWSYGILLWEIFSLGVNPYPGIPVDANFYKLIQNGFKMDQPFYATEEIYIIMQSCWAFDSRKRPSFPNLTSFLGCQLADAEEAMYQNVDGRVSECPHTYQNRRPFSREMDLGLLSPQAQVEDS
Chain of Ephrin type-A receptor 2 (Homo sapiens) (P29317 whole entry): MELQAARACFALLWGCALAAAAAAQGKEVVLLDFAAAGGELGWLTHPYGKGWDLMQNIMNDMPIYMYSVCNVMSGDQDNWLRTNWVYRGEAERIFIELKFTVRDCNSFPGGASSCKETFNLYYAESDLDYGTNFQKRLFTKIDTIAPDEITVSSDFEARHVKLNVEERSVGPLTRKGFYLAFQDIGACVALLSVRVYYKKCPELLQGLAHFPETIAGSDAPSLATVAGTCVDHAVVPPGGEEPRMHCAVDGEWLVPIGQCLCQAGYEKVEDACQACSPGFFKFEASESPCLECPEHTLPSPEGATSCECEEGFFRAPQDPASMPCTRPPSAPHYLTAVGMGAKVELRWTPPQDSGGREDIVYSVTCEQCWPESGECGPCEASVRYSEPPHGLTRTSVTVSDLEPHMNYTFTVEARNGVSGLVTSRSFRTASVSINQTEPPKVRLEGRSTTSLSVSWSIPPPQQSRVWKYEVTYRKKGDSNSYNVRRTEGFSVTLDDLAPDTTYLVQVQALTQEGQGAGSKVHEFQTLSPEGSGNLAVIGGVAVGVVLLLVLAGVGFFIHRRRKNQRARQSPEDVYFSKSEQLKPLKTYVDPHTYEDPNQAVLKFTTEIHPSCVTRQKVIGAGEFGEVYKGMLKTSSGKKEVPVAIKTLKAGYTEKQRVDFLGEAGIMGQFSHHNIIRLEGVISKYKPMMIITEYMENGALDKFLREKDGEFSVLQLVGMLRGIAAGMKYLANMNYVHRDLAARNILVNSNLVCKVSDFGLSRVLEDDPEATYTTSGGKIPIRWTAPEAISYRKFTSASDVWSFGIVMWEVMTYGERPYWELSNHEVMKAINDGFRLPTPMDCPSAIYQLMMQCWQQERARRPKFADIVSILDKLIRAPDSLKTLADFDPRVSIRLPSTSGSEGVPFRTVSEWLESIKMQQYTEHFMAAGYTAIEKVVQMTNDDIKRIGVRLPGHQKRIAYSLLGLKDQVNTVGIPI

As for `COCCNC(=O)c1ccc2c(c1)nc(-c1cnc(-c3ccc(Cl)cc3)[nH]1)n2CCOC`, the inhibition in experiment [1] was 19.6%; in experiment [2], 27.6%; in [3], 14.8%; in experiment [4], 17.3%; in [5], 1.49%; in experiment [6], 2.7%. Further, the inhibition in [7] came to 12.5%; in experiment [8] it was 0.04%; in [9], 8.76%; in [10] it was 5.36%; in experiment [11], 3.54%; in experiment [12], 3.39%.
Take `CC(C)(C)c1cc(NC(=O)Nc2ccc(Oc3ccncc3)cc2)no1`: the inhibition in [1] is 97.3%; in [2], 98.6%; in [3], 14.3%; in experiment [4], 19.3%; in [5], 33%; in experiment [6] it was 3.84%. For the same compound, the inhibition in experiment [7] was 13.8%; in [8], 3.51%; in [9] it was 30.5%; in [10], 46.3%; in [11], 17.4%; in experiment [12], 37%.
With `CS(=O)(=O)c1cccc(Nc2nccc(-c3sc(N4CCOCC4)nc3-c3cccc(NS(=O)(=O)c4c(F)cccc4F)c3)n2)c1`, the inhibition was found to be 68% in experiment [1]; 95.7% in experiment [2]; 17.8% in experiment [3]; 97% in experiment [4]; 10.1% in experiment [5]; 10.9% in experiment [6]. Moreover, the inhibition worked out at 39.1% in experiment [7]; 21.2% in experiment [8]; 13% in [9]; 66.8% in [10]; 26.4% in experiment [11]; 6.34% in experiment [12].
